Activity calls are given as the source filed them. The calls are words filed in the database; no cut-off is given here.
What was measured:
[1] = tested on: MM.1R; assay: Antiproliferative activity against human MM1.R cells with siRNA mediated IRF4#2 knockdown at 0.125 to 1 uM measured upto 5 days by MTS assay; type: functional, cell-based; settings: dose 0.125-1 µM, time <= 5.0 day
[2] = tested on: HAF; assay: Effect on IRF4 expression in human HAF cells by Western blot analysis; type: functional, cell-based
[3] = Potency index, ratio of IC50 for lenalidomide to test compound IC50 for antiproliferative activity against human MM1.R cells assessed as inhibition of cell growth measured after 72 hrs by MTS assay; type: functional
[4] = tested on: NCI-H929; assay: Downregulation of CMYC expression in human NCI-H929 cells measured after 24 hrs by qRT-PCR analysis; type: functional, cell-based; settings: dose 0.125-1 µM
[5] = tested on: MM.1R; assay: Downregulation of E2F5 expression in human MM1.R cells measured after 24 hrs by qRT-PCR analysis; type: functional, cell-based; settings: dose 0.125-1 µM
[6] = tested on: MM.1R; assay: Inhibition of AKT phosphorylation level in human MM1.R cells at 0.1 to 1 uM by Western blot analysis; type: functional, cell-based; settings: dose 0.1-1 µM
[7] = tested on: MM.1R; assay: Inhibition of ERK phosphorylation level in human MM1.R cells at 0.1 to 1 uM by Western blot analysis; type: functional, cell-based; settings: dose 0.1-1 µM
[8] = tested on: NCI-H929; assay: Induction of cell cycle arrest in human NCI-H929 cells assessed as accumulation of cells at G1 phase at 0.125 uM measured after 24 hrs by flow cytometry analysis (reference value: 54.12%); type: functional
[9] = tested on: NCI-H929; assay: Induction of cell cycle arrest in human NCI-H929 cells assessed as accumulation of cells at G1 phase at 0.25 uM measured after 24 hrs by flow cytometry analysis (reference value: 54.12%); type: functional
[10] = tested on: NCI-H929; assay: Induction of cell cycle arrest in human NCI-H929 cells assessed as inhibition of cyclin D1 protein expression at 0.1 to 1 uM; type: functional, cell-based; settings: dose 0.1-1 µM
[11] = tested on: NCI-H929; assay: Induction of cell cycle arrest in human NCI-H929 cells assessed as inhibition of cyclin E1 protein expression at 0.1 to 1 uM; type: functional, cell-based; settings: dose 0.1-1 µM
[12] = tested on: MM.1R; assay: Induction of cell cycle arrest in human MM1.R cells assessed as inhibition of CMYC protein expression at 0.1 to 1 uM; type: functional, cell-based; settings: dose 0.1-1 µM
[13] = Toxicity in Balb/C nude mouse assessed as side effects at 12.5 to 25 mg/kg administered once daily and measured every three days for 34 days by H and E staining based analysis; type: organism-based; settings: in vivo, 816 h, dose 12.5-25 mg/kg, time 34 day
[14] = Antiproliferative activity against human MM1.R cells assessed as inhibition of cell viability measured after 72 hrs by MTS assay; type: functional, cell-based; settings: MM.1R
[15] = Antiproliferative activity against human HaCaT cells assessed as inhibition of cell viability measured after 72 hrs by MTS assay; type: toxicity, cell-based
[16] = Selectivity ratio IC50 for human RPMI-8226 cells to IC50 for human NCI-H929 cells; type: toxicity
[17] = Cmax in ICR mouse plasma at 1.0 mg/kg, iv; type: ADME, organism-based

COc1ccc(NC(=O)[C@@H](C)[C@H]2CC[C@H]3[C@@H]4C(=O)C=C5C(C)(C)C(=O)C(C#N)=C[C@]5(C)[C@H]4CC[C@]23C)cc1
Activity [1]: Active | Activity [2]: inactive | Ratio IC50 [3]: 30 | Activity [4]: Active | Activity [5]: Active | inhibition [6]: Active | inhibition [7]: Active | Activity [8]: 57.62% | Activity [9]: 60.31% | Activity [10]: Active | Activity [11]: Active | Activity [12]: Active | Activity [13]: Non-toxic | IC50 [14]: 110 nM | IC50 at 72 h [15]: > 100000 nM | Ratio IC50 [16]: 14.9 | Cmax [17]: 174 ng/mL

From ChEMBL document CHEMBL6121019, “Design, synthesis and biological evaluation of bisnoralcohol derivatives as novel IRF4 inhibitors for the treatment of multiple myeloma” (Eur J Med Chem, 2025)
